Where two headings read alike, the source gives them in different places.

Usually IC50 stands for the concentration at which inhibition is half-maximal. By Ki is commonly meant the dissociation constant of the complex between target and ligand, obtained from inhibition or displacement.

Series [1] has as its target T1, sigma-2 receptor (sigma-2 sites) (Rattus norvegicus, UniProt Q5U3Y7).
T1 sequence (Q5U3Y7 1-176): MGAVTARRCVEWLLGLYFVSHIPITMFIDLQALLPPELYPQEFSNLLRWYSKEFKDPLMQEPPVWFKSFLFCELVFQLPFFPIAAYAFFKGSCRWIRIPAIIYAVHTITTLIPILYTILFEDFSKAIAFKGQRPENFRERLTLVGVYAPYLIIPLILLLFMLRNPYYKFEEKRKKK
As to the kind of experiment: Competitive displacement of [3H]-DTG binding, rat liver membranes. The settings on record: for KI sigma-2 sites: rat liver membranes in the presence of 100 nM (+)-pentazocine, [3H]-DTG; for sigma-2/sigma-1: ratio from the KI value of sigma-1 and sigma-2 sites (membranes). In general terms: Displacement assays read how much labelled ligand stays bound in the presence of the test substance.

The next series addresses Kv1.4 potassium channel (Rattus norvegicus, UniProt P15385+Q9R0C9). As to the kind of experiment: Whole cell patch clamp, HEK-293 cells co-expressing Kv1.4 and sigma-1 receptor. It counts as cell-based. The settings on record: for average inhibition of the Kv1.4 potassium channel: concentrations up to 300 μM, HEK-293 with Kv1.4 and sigma-1 receptor. For orientation: The patch-clamp technique gives a direct electrical read-out from membranes.

Series [2] addresses pure guinea pig sigma-1 receptor (Cavia porcellus, UniProt Q60492). The series can be described thus: Competitive displacement of [3H]-. It counts as binding.
In series [3] the target is H2 (histamine receptor type 2) (Homo sapiens, UniProt P25021). As to the kind of experiment: NIMH PDSP secondary binding assay.
Sequence of H2 (histamine receptor type 2) (P25021 whole entry): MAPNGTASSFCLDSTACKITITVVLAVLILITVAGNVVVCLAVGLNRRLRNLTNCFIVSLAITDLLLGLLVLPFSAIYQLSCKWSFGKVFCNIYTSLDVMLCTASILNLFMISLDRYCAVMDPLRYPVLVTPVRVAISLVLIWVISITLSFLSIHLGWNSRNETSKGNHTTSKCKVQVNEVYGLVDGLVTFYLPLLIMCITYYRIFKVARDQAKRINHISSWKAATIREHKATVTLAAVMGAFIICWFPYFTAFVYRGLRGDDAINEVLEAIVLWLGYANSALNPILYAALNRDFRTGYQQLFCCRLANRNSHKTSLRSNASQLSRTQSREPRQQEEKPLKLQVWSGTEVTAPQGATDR
The next series deals with NCI-H460. The series can be described thus: Multiplex cytotoxicity assay. The settings on record: Homo sapiens, NCI-H460, read-out: IC50 NCI-H460. It counts as cell-based.
The target of series [4] is 5HT1B (serotonin receptor subtype 1B) (Homo sapiens, UniProt P28222). As to the kind of experiment: NIMH PDSP secondary binding assay.
Sequence of 5HT1B (serotonin receptor subtype 1B) (P28222 whole entry, species assumed): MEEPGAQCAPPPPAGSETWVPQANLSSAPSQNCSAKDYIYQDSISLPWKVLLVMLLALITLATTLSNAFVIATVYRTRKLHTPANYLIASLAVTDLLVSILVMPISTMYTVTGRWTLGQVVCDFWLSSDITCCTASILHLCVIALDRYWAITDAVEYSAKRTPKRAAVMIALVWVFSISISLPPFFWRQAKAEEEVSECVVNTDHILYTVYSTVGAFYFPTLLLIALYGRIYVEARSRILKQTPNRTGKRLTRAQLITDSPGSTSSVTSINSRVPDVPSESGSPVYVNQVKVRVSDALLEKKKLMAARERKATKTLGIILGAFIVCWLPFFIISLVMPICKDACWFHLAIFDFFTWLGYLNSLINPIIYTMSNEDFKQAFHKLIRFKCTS
For series [5], the target named is β-2 (β-adrenergic receptor subtype 2) (Homo sapiens, UniProt P07550). As to the kind of experiment: NIMH PDSP secondary binding assay.
Sequence of β-2 (β-adrenergic receptor subtype 2) (P07550 whole entry): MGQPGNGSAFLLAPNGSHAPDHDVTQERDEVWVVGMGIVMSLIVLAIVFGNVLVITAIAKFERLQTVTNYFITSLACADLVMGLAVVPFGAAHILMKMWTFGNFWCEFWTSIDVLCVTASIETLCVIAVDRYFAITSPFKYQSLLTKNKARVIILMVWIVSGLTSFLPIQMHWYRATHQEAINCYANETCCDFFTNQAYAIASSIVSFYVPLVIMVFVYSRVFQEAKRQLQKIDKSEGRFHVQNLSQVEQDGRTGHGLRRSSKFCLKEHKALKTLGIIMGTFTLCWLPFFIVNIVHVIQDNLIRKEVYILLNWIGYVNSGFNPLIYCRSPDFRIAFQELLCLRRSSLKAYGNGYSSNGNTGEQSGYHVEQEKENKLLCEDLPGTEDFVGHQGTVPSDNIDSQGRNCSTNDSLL
For another series, the system named is caspases 3/7, 8, and 9. As to the kind of experiment: Caspase activation potential. Format: cell-based. As to conditions: data not shown.
Series [6] addresses NET (norepinephrine transporter) (Homo sapiens, UniProt P23975). As to the kind of experiment: NIMH PDSP secondary binding assay.
Series [7] deals with H3 (histamine receptor type 3) (Homo sapiens, UniProt Q9Y5N1). As to the kind of experiment: NIMH PDSP secondary binding assay.
The test system of another series is MCF-10A. The series can be described thus: Multiplex cytotoxicity assay. It counts as cell-based. As to conditions: Homo sapiens, read-out: IC50 MCF-10A.
Series [8] concerns the target M3 (muscarinic acetylcholine receptor type 3) (Homo sapiens, UniProt P20309). As to the kind of experiment: NIMH PDSP secondary binding assay.
For a further series, the system named is H1299. As to the kind of experiment: Multiplex cytotoxicity assay. As to conditions: Homo sapiens, NCI-H1299, read-out: IC50 H1299. It counts as cell-based.
The subject of a further series is SF-268. As to the kind of experiment: Multiplex cytotoxicity assay. It counts as cell-based. As to conditions: Homo sapiens, SF-268, read-out: IC50 SF-268.
The next series has as its system HT-29. As to the kind of experiment: Multiplex cytotoxicity assay. It counts as cell-based. The settings on record: Homo sapiens, HT-29, read-out: IC50 HT-29.
For the next series, the target named is Sig-1R, sigma-1 receptor (Rattus norvegicus, UniProt Q9R0C9). The series can be described thus: NIMH PDSP secondary binding assay.
Sequence of Sig-1R, sigma-1 receptor (Q9R0C9 whole entry): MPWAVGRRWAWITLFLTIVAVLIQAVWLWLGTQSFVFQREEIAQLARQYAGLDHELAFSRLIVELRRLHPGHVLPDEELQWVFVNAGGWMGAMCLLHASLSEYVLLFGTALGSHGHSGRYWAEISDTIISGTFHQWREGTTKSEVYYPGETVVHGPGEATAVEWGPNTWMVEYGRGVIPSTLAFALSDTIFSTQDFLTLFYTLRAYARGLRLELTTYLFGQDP
For another series, the system named is MCF-7. The series can be described thus: Multiplex cytotoxicity assay. Format: cell-based. As to conditions: Homo sapiens, MCF7, read-out: IC50 MCF-7.
For series [9], the target named is 5HT2B (serotonin receptor subtype 2B) (Homo sapiens, UniProt P41595). The series can be described thus: NIMH PDSP secondary binding assay.
Sequence of 5HT2B (serotonin receptor subtype 2B) (P41595 whole entry, species assumed): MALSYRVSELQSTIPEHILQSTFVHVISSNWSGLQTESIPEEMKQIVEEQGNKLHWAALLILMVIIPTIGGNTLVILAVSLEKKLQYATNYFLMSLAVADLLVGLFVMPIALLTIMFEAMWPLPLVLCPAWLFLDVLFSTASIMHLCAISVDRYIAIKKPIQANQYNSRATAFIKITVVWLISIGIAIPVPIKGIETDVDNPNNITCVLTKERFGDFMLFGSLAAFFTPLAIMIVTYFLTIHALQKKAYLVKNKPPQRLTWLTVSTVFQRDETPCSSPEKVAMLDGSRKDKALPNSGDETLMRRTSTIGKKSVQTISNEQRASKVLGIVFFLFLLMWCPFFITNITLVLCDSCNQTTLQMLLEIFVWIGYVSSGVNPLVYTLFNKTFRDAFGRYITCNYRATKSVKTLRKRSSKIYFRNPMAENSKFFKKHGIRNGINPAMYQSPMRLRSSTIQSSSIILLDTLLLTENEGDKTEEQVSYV
The next series deals with Du145. The series can be described thus: Multiplex cytotoxicity assay. The settings on record: Homo sapiens, DU-145, read-out: IC50 Du145. It counts as cell-based.
The subject of a further series is A549. As to the kind of experiment: Multiplex cytotoxicity assay. It counts as cell-based. As to conditions: Homo sapiens, A549, read-out: IC50 A549.
In the next series the test system is MDA-MB-231. As to the kind of experiment: Multiplex cytotoxicity assay. As to conditions: Homo sapiens, MDA-MB-231, read-out: IC50 MDA-MB-231. It counts as cell-based.
For series [10], the target named is T2, α-1A (α-adrenergic receptor subtype 1A) (Homo sapiens, UniProt P35348).
T2 sequence (P35348 1-466): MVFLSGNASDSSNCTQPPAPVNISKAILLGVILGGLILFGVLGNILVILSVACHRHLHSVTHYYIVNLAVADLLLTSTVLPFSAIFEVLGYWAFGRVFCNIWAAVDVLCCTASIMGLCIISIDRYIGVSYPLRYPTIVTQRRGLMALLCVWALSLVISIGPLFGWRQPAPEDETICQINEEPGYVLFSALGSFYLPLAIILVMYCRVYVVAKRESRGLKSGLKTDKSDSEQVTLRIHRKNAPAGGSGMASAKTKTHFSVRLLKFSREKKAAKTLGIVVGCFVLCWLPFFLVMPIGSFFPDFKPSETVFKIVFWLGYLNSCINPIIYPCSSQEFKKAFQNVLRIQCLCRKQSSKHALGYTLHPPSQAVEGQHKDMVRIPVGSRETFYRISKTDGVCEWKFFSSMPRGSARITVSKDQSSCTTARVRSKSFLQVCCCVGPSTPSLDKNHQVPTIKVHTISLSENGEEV
As to the kind of experiment: NIMH PDSP secondary binding assay.

For the next series, the target named is sigma-1 receptor (Cavia porcellus, UniProt Q60492). The series can be described thus: Saturation binding of [3H]-. Also on record: species or system guinea pig. The settings on record: GPLM; increasing concentrations of 2b.
Sequence of sigma-1 receptor (Q60492 whole entry): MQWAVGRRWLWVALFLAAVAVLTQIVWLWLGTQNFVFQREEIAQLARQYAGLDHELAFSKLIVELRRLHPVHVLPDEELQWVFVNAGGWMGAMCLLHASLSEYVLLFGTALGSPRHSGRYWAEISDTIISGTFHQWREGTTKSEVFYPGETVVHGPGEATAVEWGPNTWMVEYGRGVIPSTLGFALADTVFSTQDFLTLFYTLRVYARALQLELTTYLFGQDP
The target in series [11] is T3, 5HT1A (serotonin receptor subtype 1A) (Homo sapiens, UniProt P08908).
T3 sequence (P08908 1-422): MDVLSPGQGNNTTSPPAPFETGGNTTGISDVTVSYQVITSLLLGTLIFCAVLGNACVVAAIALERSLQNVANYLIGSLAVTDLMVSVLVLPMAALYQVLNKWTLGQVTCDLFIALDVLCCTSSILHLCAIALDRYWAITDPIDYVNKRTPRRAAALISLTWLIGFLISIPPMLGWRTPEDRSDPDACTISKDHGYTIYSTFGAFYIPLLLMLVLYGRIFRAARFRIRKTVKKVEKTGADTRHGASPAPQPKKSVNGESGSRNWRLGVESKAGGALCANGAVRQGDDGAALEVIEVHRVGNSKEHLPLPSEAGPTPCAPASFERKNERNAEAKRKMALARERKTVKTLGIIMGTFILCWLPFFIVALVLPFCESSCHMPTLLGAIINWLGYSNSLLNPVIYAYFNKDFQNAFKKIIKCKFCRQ
The series can be described thus: NIMH PDSP secondary binding assay. The settings on record: KI 5HT1A.

The next series concerns SK-OV-3. As to the kind of experiment: Multiplex cytotoxicity assay. The settings on record: Homo sapiens, SK-OV-3, read-out: IC50 SK-OV-3. Format: cell-based.
Series [12] has as its target β-3 (β-adrenergic receptor subtype 3) (Homo sapiens, UniProt P13945). The series can be described thus: NIMH PDSP secondary binding assay.
A further series has as its system HCT-15. As to the kind of experiment: Multiplex cytotoxicity assay. The settings on record: Homo sapiens, HCT-15, read-out: IC50 HCT-15. Format: cell-based.
For series [13], the target named is 5HT7 (serotonin receptor subtype 7) (Homo sapiens, UniProt P34969). The series can be described thus: NIMH PDSP secondary binding assay.
Series [14] addresses D1 (dopamine receptor type 1) (Homo sapiens, UniProt P21728). The series can be described thus: NIMH PDSP secondary binding assay.
Series [15] has as its target M5 (muscarinic acetylcholine receptor type 5) (Homo sapiens, UniProt P08912). As to the kind of experiment: NIMH PDSP secondary binding assay.
Series [16] addresses SERT (serotonin transporter) (Homo sapiens, UniProt P31645). As to the kind of experiment: NIMH PDSP secondary binding assay.
The target of series [17] is M4 (muscarinic acetylcholine receptor type 4) (Homo sapiens, UniProt P08173). As to the kind of experiment: NIMH PDSP secondary binding assay.
Sequence of M4 (muscarinic acetylcholine receptor type 4) (P08173 whole entry): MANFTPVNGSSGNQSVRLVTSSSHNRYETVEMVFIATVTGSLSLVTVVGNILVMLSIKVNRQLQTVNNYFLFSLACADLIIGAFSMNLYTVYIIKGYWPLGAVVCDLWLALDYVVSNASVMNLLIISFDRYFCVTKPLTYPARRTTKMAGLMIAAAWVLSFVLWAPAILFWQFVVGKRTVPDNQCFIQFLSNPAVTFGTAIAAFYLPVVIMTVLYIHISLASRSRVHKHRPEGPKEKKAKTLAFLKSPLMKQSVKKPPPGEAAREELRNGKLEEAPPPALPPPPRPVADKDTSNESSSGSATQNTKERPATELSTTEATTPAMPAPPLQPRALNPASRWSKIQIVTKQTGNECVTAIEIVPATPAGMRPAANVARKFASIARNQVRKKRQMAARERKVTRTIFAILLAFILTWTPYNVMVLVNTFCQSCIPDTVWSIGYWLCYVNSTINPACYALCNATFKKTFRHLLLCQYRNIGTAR
In another series the target is T4, Sig-2R, sigma-2 receptor (Rattus norvegicus, UniProt Q5U3Y7).
T4 sequence (Q5U3Y7 1-176): T1 sequence (Q5U3Y7 1-176)
As to the kind of experiment: NIMH PDSP secondary binding assay.

For series [18], the system named is tumors grown from the mouse mammary adenocarcinoma cell line 66. The settings on record: nude mice with tumors from mouse mammary adenocarcinoma cell line 66; cited from earlier work.
Series [19] concerns caspases 3/7. The settings on record: MCF-7 and MDA MB 468 mammary carcinoma; ref Spruce et al. 2004; cited from earlier work.
For series [20], the system named is caspases 3/7. As to the kind of experiment: Caspase activation by rimcazole in cancer cell lines. Format: cell-based. The settings on record: any cancer cell lines tested, including MCF-7.
Setting [21] is: read-out: KI pure sigma-1 receptor, Table 1, [3H]-(+)-pentazocine displacement.

Sequence of Kv1.4 potassium channel (P15385 whole entry): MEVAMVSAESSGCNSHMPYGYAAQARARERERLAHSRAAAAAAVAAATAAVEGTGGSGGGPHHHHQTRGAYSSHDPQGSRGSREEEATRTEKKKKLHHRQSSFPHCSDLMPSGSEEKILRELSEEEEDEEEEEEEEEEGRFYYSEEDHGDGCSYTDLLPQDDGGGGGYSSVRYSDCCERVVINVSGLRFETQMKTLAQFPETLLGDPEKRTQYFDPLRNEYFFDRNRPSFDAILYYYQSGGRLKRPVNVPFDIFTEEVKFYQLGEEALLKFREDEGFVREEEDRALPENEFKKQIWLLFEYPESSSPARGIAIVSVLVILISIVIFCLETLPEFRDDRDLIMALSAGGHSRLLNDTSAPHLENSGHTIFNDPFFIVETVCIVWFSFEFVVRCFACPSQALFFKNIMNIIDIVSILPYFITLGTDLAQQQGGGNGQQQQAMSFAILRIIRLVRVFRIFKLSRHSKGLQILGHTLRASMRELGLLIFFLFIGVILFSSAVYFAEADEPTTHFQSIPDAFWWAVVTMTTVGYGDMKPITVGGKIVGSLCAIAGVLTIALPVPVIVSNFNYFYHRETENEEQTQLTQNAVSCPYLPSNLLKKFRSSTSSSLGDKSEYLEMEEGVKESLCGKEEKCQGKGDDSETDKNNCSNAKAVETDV
Sequence of Kv1.4 potassium channel (Q9R0C9 whole entry): as the sequence (Q9R0C9 whole entry) above
Sequence of pure guinea pig sigma-1 receptor (Q60492 whole entry): as the sequence (Q60492 whole entry) above
Sequence of SERT (serotonin transporter) (P31645 whole entry, species assumed): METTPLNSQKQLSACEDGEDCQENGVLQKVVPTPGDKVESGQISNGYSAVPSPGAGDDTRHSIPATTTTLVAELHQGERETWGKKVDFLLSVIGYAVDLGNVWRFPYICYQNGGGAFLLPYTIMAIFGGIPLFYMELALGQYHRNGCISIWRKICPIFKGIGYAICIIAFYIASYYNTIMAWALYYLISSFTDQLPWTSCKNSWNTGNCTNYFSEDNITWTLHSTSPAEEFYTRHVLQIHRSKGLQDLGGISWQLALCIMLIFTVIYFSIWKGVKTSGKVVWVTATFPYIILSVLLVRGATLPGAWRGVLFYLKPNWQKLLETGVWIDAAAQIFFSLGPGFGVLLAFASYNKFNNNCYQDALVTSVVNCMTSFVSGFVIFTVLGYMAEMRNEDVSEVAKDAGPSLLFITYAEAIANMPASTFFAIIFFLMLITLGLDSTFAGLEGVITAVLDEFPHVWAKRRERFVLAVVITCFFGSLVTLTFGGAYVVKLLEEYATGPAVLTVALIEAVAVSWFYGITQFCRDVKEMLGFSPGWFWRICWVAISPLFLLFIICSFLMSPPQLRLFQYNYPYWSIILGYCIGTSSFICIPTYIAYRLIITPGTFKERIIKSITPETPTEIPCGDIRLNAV
Sequence of D1 (dopamine receptor type 1) (P21728 whole entry): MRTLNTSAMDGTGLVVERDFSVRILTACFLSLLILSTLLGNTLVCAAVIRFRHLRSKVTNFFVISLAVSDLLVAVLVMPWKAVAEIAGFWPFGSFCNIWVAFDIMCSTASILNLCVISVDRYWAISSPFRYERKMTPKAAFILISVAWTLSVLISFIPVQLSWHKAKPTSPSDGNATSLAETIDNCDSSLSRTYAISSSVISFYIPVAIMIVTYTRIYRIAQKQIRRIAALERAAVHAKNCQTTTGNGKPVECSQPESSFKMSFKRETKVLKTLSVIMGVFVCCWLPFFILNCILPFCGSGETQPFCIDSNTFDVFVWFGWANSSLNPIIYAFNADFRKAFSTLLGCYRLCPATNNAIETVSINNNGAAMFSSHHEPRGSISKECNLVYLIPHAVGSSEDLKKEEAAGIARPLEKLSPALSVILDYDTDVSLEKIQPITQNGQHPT
Sequence of β-3 (β-adrenergic receptor subtype 3) (P13945 whole entry): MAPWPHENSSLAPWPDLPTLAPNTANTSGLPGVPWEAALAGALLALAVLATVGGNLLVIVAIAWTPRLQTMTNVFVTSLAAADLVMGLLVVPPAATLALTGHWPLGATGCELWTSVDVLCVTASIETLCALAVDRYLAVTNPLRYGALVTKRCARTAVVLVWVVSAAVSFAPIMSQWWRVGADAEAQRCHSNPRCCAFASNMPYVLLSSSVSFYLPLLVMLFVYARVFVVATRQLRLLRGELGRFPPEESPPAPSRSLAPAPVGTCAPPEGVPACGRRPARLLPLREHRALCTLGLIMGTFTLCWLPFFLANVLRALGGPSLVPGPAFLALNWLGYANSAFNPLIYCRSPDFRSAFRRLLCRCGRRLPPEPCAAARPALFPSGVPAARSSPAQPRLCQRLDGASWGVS

Regarding `CCCCNCCCc1ccccc1` [1a, N-(3-Phenylpropyl)butan-1-amine], in series [1], the “KI sigma-2 sites” value is given as “nanomolar affinities” and the sigma-2/sigma-1 was found to be 2. The molecule further had an IC50 on Kv1.4 potassium channel of 50 µM. This molecule also gave a Ki in series [2] of 0.2 ± 0.02 µM.
Regarding `CCCCNCCCc1ccc([N+](=O)[O-])cc1` [1b, N-(3-(4-Nitrophenyl)propyl)butan-1-amine], in series [1], the “KI sigma-2 sites” value is recorded as “nanomolar affinities” and the sigma-2/sigma-1 was determined as 7.
For the molecule `CCCCCCCNCCCc1ccc([N+](=O)[O-])cc1` [2b, N-(3-(4-Nitrophenyl)propyl)heptan-1-amine], the Ki in [3] is 0.6 µM; in [4] it was greater than 10 µM; in [5], greater than 10 µM; in series [6] it was 4 µM; in series [7] it was greater than 10 µM; in [8], 1.1 µM. For the same molecule, the Ki on Sig-1R, sigma-1 receptor is 0.02 µM; in [9], 1.1 µM; in [10], greater than 10 µM; in series [11] (NIMH PDSP, [3H]8-OH-DPAT/0.5 nM) it was 0.05 µM; in series [11] (text statement on secondary screen), less than 0.05 µM; in [12] it was greater than 10 µM. Moreover, the Ki in series [13] was 0.9 µM; in [14], greater than 10 µM; in series [15] it was 0.3 µM; in [16], 1.1 µM; in series [17], 1.4 µM; at Sig-2R, sigma-2 receptor, 0.014 µM. The IC50 in the series on NCI-H460 was 38 ± 4 µM; with MCF-10A it was 53 ± 6 µM; with H1299, 28 ± 1 µM; with SF-268, 40 ± 3 µM; in the series with HT-29 it was 30 ± 1 µM; in the series with MCF-7, 21 ± 1 µM. In addition, the IC50 in the series with Du145 was 29 ± 1 µM; with A549, 55 ± 5 µM; with MDA-MB-231 it was 30 ± 2 µM; in the series with SK-OV-3, 73 ± 8 µM; in the series with HCT-15, greater than 100 µM. Also, the “activation of caspases 3/7, 8, and 9” value with caspases 3/7, 8, and 9 is “did not activate”. Also, the “KI sigma-2 sites” value in series [1] is “nanomolar affinities”. The sigma-2/sigma-1 in series [1] was found to be 1. Moreover, at sigma-1 receptor, the “Bmax of [3H]-(+)-pentazocine in the presence of 2b” value was “unchanged”.
Take `CCCCCCCCCCCCCCCCCCNCCCc1ccccc1` [4a, N-(3-Phenylpropyl)octadecan-1-amine]: in series [1], the “KI sigma-2 sites” value is given as “micromolar affinities” and the sigma-2/sigma-1 was 0.6.
Take `CCCCCCCCCCCCCCCCCCNCCCc1ccc([N+](=O)[O-])cc1` [4b, N-(3-(4-Nitrophenyl)propyl)octadecan-1-amine]: in [1], the “KI sigma-2 sites” value was “micromolar affinities” and the sigma-2/sigma-1 was determined as 0.3. This molecule showed a Ki in series [2] of 0.042 ± 0.007 µM.
With `CCCCCN` [Amylamine], in [2] (setting [21]), the Ki is 167 ± 35 µM.
As to `CCCCN` [Butylamine, reference compound], the “average inhibition of the Kv1.4 potassium channel” value on Kv1.4 potassium channel came to 21%. In addition, the Ki in [2] (setting [21]) turned out to be 477 ± 67 µM.
For `CCCCCCCN` [Heptylamine, reference compound], the “average inhibition of the Kv1.4 potassium channel” value at Kv1.4 potassium channel is given as 15%.
Regarding `CCCCCCCCN` [Octylamine], in series [2] (setting [21]), the Ki stood at 6 ± 3 µM.
In the case of `CCCCCCCCCCCCCCN` [Tretradecylamine], the inhibitory constant (Ki) in [2] (setting [21]) was found to be 1 ± 0.03 µM.
As for `O=C(Cc1cccc(Br)c1)NC1CCN(Cc2ccc([18F])cc2)CC1` [[^18F]FBPBPA, N-[1-(4′-[^18F]fluorobenzyl)piperidin-4-yl]-3-bromophenylacetamide], in [18], the “receptor-specific uptake of the tracer in the brain” value is ~ 60% and the “receptor-specific uptake of the tracer in the tumor” value is listed as ~ 25%.
`C[C@@H]1CN(CCCn2c3ccccc3c3ccccc32)C[C@H](C)N1` [rimcazole]: the “activation of caspases 3/7” value with caspases 3/7 [19] is recorded as “activate”; in the series with caspases 3/7 [20] it was “not found to activate”.
